Results taken from the NIST ThermoML archive (doi:10.1016/j.tca.2004.11.015).

Assay: xn = mol fraction of the nth substance listed
Conditions: 101.33 kPa, Liquid, Vibrating tube method

NCCO [2-aminoethan-1-ol] + CO
mass density [kg/m3]
Conditions	283.15 K	288.15 K	293.15 K	298.15 K
x1 = 0.012	805.83	801.17	796.49	791.8
x1 = 0.031	813.82	809.2	804.57	799.92
x1 = 0.05	821.45	816.86	812.26	807.64
x1 = 0.1	840.61	836.11	831.59	827.05
x1 = 0.15	858.27	853.79	849.33	844.86
x1 = 0.2002	874.67	870.3	865.9	861.49
x1 = 0.2501	889.65	885.33	880.98	876.62
x1 = 0.2974	902.94	898.66	894.35	890.03
x1 = 0.3502	916.72	912.48	908.21	903.94
x1 = 0.4001	928.53	924.32	920.09	915.84
x1 = 0.4427	938.12	933.94	929.73	925.51
x1 = 0.4502	939.89	935.71	931.52	927.31
x1 = 0.5002	950.16	946.01	941.84	937.66
x1 = 0.5501	959.78	955.65	951.5	947.35
x1 = 0.6001	968.89	964.79	960.67	–
x1 = 0.6501	977.39	973.31	969.21	–
x1 = 0.7005	985.59	981.53	977.45	–
x1 = 0.7479	992.48	988.45	984.39	–
x1 = 0.8002	1000.19	996.18	992.15	–
x1 = 0.8502	1006.55	1002.56	998.55	–
x1 = 0.8967	1012.63	1008.66	1004.66	–
x1 = 0.9501	1018.78	1014.82	1010.85	–
